Results reported in patent US7407941B2, “N-desmethyl-N-substituted-11-deoxyerythromycin compounds” (Pfizer, Inc., priority 2003, dated 2008).
≈ marks a conversion by molar mass, not a printed value.

Legend:
Assay type in all cases: cell-based
[1] = test system: Streptococcus pneumoniae ATCC 6301; test: In vitro antibacterial activity (MIC); details: ATCC6301, erythromycin sensitive strain ATCC 6301
Protocol: (§1) Compounds of this invention were tested for in vitro activity against three erythromycin sensitive strains of Streptococcus pneumoniae (ATCC 6301, ATCC 700671, and ATCC 49619), using methods known in the microbiological art.

[2] = test system: Streptococcus pneumoniae ATCC 70071; test: In vitro antibacterial activity (MIC); details: ATCC70071, erythromycin sensitive strain ATCC 70071
Protocol: as §1

[3] = test system: Streptococcus pneumoniae ATCC 49619; test: In vitro antibacterial activity (MIC); details: ATCC49619, erythromycin sensitive strain ATCC 49619
Protocol: as §1

motilin receptor = target: T1, motilin receptor (Homo sapiens, UniProt O43193); test: Motilin agonist activity (activation of the motilin receptor)
T1 construct: expressed in transfected cells
T1 sequence (O43193 whole entry): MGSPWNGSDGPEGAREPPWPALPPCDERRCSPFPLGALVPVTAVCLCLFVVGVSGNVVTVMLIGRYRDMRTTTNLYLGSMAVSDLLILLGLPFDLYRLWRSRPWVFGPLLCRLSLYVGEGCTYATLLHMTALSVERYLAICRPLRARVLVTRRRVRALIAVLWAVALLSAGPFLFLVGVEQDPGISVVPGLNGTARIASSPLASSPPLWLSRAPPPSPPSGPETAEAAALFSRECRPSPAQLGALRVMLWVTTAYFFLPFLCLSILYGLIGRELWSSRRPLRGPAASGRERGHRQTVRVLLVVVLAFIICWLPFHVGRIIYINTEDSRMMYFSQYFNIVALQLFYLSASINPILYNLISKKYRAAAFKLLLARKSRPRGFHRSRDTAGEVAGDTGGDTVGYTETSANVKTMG
Protocol: Compounds of this invention were tested for motilin agonist activity, following the procedure of Carreras et al., Anal. Biochem., 300, 146-151 (2002), the disclosure of which is incorporated herein by reference.

| MIC [1] [µg/mL] | MIC [2] [µg/mL] | MIC [3] [µg/mL] | EC50 (motilin receptor) [nM] | SMILES |
| --- | --- | --- | --- | --- |
| 12.5 (≈ 17.1 µM) | 200 (≈ 274 µM) | 6.25 (≈ 8.56 µM) | 700 | CC[C@H]1OC(=O)[C@H](C)[C@@H](O[C@H]2C[C@@](C)(OC)[C@@H](O)[C@H](C)O2)[C@H](C)[C@@H](O[C@@H]2O[C@H](C)C[C@H](N(C)C(C)C)[C@H]2O)C(C)(O)C[C@@H](C)C(=O)[C@H](C)C[C@H]1C (stereo partly drawn) [IVa, N-desmethyl-N-isopropyl-11-deoxyerythromycin B] |
| 0.049 (≈ 0.0698 µM) | 0.78 (≈ 1.11 µM) | 0.098 (≈ 0.14 µM) | 1200 | CC[C@H]1OC(=O)[C@H](C)[C@@H](O[C@H]2C[C@@](C)(OC)[C@@H](O)[C@H](C)O2)[C@H](C)[C@@H](O[C@@H]2O[C@H](C)C[C@H](N(C)C)[C@H]2O)C(C)(O)C[C@@H](C)C(=O)[C@H](C)C[C@H]1C (stereo partly drawn) [11-Deoxyerythromycin B, reference compound] |
| 200 (≈ 269 µM) | > 200 | 200 (≈ 269 µM) | 2100 | CC[C@H]1OC(=O)[C@H](C)[C@@H](O[C@H]2C[C@@](C)(OC)[C@@H](O)[C@H](C)O2)[C@H](C)[C@@H](O[C@@H]2O[C@H](C)C[C@H](N(C)CC(C)C)[C@H]2O)C(C)(O)C[C@@H](C)C(=O)[C@H](C)C[C@H]1C (stereo partly drawn) [IVb, N-desmethyl-N-isobutyl-11-deoxyerythromycin B] |
| 0.025 (≈ 0.0341 µM) | 0.049 (≈ 0.0668 µM) | 0.049 (≈ 0.0668 µM) | – | CC[C@H]1OC(=O)[C@H](C)[C@@H](O[C@H]2C[C@@](C)(OC)[C@@H](O)[C@H](C)O2)[C@H](C)[C@@H](O[C@@H]2O[C@H](C)C[C@H](N(C)C)[C@H]2O)[C@](C)(O)C[C@@H](C)C(=O)[C@H](C)[C@@H](O)[C@]1(C)O [Erythromycin A, reference compound] |
